Laboratory results from PMC7914897, “Cytotoxic Potential of a-Azepano- and 3-Amino-3,4-SeCo-Triterpenoids” (International Journal of Molecular Sciences, 2021).

Legend:
TK-10 (Renal cancer) = test: NCI-60 screen (SRB, 48 h); conditions: Homo sapiens
U251 (CNS cancer) = test: NCI-60 screen (SRB, 48 h); conditions: Homo sapiens
BT-549 (Breast cancer) = test: NCI-60 screen (SRB, 48 h); format: cell-based; conditions: Homo sapiens
CAKI-1 (Renal cancer) = test: NCI-60 screen (SRB, 48 h); conditions: Homo sapiens
PC-3 (Prostate cancer) = test: NCI-60 screen (SRB, 48 h); conditions: Homo sapiens
CCRF-CEM (Leukemia) = test: NCI-60 screen (SRB, 48 h); conditions: Homo sapiens
SK-MEL-5 (Melanoma) = test: NCI-60 screen (SRB, 48 h); conditions: Homo sapiens
SF-268 (CNS cancer) = test: NCI-60 screen (SRB, 48 h); conditions: Homo sapiens
HCT-116 (Colon cancer) = test: NCI-60 screen (SRB, 48 h); conditions: Homo sapiens
HL-60(TB) (Leukemia) = test: NCI-60 screen (SRB, 48 h); format: cell-based; conditions: Homo sapiens
RXF 393 (Renal cancer) = test: NCI-60 screen (SRB, 48 h); conditions: Homo sapiens
SF-539 (CNS cancer) = test: NCI-60 screen (SRB, 48 h); conditions: Homo sapiens
SK-OV-3 (Ovarian cancer) = test: NCI-60 screen (SRB, 48 h); conditions: Homo sapiens
[1] = test system: FaDu (hypopharyngeal carcinoma); test: SRB cytotoxicity assay, 72 h; format: cell-based, human; conditions: Homo sapiens, cut-off 30 µM, read-out: EC50
Procedure: (§1) The cytotoxicity of compounds 1–20 was evaluated by means of a colorimetric sulforhodamine B (SRB) assay. For all compounds, the EC50 values were determined for the human tumor cell lines A375 (malignant melanoma), HT29 (colorectal carcinoma), MCF-7 (breast carcinoma), A2780 (ovarian carcinoma), FaDu (hypopharyngeal carcinoma), and NIH 3T3 (non-malignant mouse fibroblasts).
(§2) In short, exponentially growing cells were seeded into 96-well plates on day 0 at the appropriate cell densities to prevent confluence of the cells during the period of experiment. After 24 h, the cells were treated with serial dilutions of the compounds (0–30 µM) for 72 h. The final concentration of DMSO never exceeded 0.5%, which was non-toxic to the cells. After a 72 h treatment, the supernatant medium from the 96-well plates was discarded, and the cells were fixed with 10% TCA. For a thorough fixation, the plates were allowed to rest at 4 °C. After fixation, the cells were washed in a strip washer. The washing was done four times with water using alternate dispensing and aspiration procedures. The plates were then dyed with 100 µL of 0.4% SRB for about 20 min. After dying, the plates were washed with 1% acetic acid to remove the excess of the dye and allowed to air-dry overnight. Tris base solution (200 µL, 10 mM) was added to each well and absorbance was measured at λ = 570 nm (using a 96 well plate reader, Tecan Spectra, Crailsheim, Germany). The percentages of surviving cells relative to untreated controls were determined.

[2] = test system: HT29 (colorectal carcinoma); test: SRB cytotoxicity assay, 72 h; format: cell-based, human; conditions: Homo sapiens, HT-29; HT29, 72 h, cut-off 30 µM; read-out: EC50
Procedure: as §1, §2

[3] = test system: A2780 (ovarian carcinoma); test: SRB cytotoxicity assay, 72 h; format: cell-based, human; conditions: Homo sapiens; A2780, 72 h, cut-off 30 µM; read-out: EC50
Procedure: as §1, §2

MCF-7 (breast carcinoma) = test: SRB cytotoxicity assay, 72 h; format: cell-based, human; conditions: Homo sapiens, MCF7; MCF-7, 72 h, cut-off 30 µM; read-out: EC50
Procedure: as §1, §2

[4] = test system: A375 (malignant melanoma); test: SRB cytotoxicity assay, 72 h; format: cell-based, human; conditions: Homo sapiens, A-375, 72 h, A375, 72 h, cut-off 30 µM; read-out: EC50
Procedure: as §1, §2

HT29 (Colon cancer) = test: NCI-60 screen (SRB, 48 h); conditions: Homo sapiens
MDA-MB-435 (Melanoma) = test: NCI-60 screen (SRB, 48 h); format: cell-based; conditions: Homo sapiens
OVCAR-5 (Ovarian cancer) = test: NCI-60 screen (SRB, 48 h); conditions: Homo sapiens
NSC lung cancer subpanel = test: NCI-60 screen, subpanel; conditions: Homo sapiens
IGROV1 (Ovarian cancer) = test: NCI-60 screen (SRB, 48 h); conditions: Homo sapiens

Compound `C=C(C)[C@@H]1CC[C@]2(C)[C@H](CC=C3[C@@H]4[C@@H](C)[C@H](C)CC[C@]4(CO)CC[C@]32C)[C@@]1(C)CCCN` [Compound 19] has a GI50 (TK-10 (Renal cancer); TK-10) of 2.21 µM, an IC (TGI) (TK-10 (Renal cancer); TK-10, 48 h, read-out: TGI) of 9.75 µM and a CC50 (TK-10 (Renal cancer); TK-10, read-out: LC50) of 24.6 µM. For the same compound, the GI50 (U251 (CNS cancer); U-251) was 0.92 µM, the IC (TGI) (U251 (CNS cancer); U-251, 48 h, read-out: TGI) was 1.82 µM and the GI50 (BT-549 (Breast cancer); BT-549) was 2.56 µM. For the same compound, the IC (TGI) (BT-549 (Breast cancer); BT-549, 48 h) was 9.23 µM, the CC50 (BT-549 (Breast cancer); BT-549, read-out: LC50 (the source's name)) was 23.3 µM and the GI50 (CAKI-1 (Renal cancer); CAKI-1) was 1.69 µM. It also gave an IC (TGI) (CAKI-1 (Renal cancer); CAKI-1, 48 h, read-out: TGI) of 5.58 µM, a CC50 (CAKI-1 (Renal cancer); CAKI-1, read-out: LC50) of 17.9 µM and a GI50 (PC-3 (Prostate cancer); PC-3) of 1.65 µM. The IC (TGI) (PC-3 (Prostate cancer); PC-3, 48 h, read-out: TGI) was 7.48 µM, the CC50 (PC-3 (Prostate cancer); PC-3, read-out: LC50) was 26 µM and the GI50 (CCRF-CEM (Leukemia)) was 1.31 µM. The IC (TGI) (CCRF-CEM (Leukemia); 48 h, read-out: TGI) was 5.26 µM, the CC50 (CCRF-CEM (Leukemia); read-out: LC50) was over 50 µM and the GI50 (SK-MEL-5 (Melanoma); SK-MEL-5) was 0.91 µM. The IC (TGI) (SK-MEL-5 (Melanoma); SK-MEL-5, 48 h, read-out: TGI) was 1.65 µM, the CC50 (SK-MEL-5 (Melanoma); SK-MEL-5, read-out: LC50) was 3 µM and the GI50 (SF-268 (CNS cancer); SF-268) was 1.22 µM. The IC (TGI) (SF-268 (CNS cancer); SF-268, 48 h, read-out: TGI) was 2.69 µM, the CC50 (SF-268 (CNS cancer); SF-268, read-out: LC50) was 14.8 µM and the GI50 (HCT-116 (Colon cancer); HCT-116) was 0.81 µM. For the same compound, the IC (TGI) (HCT-116 (Colon cancer); HCT-116, 48 h, read-out: TGI) was 1.54 µM, the CC50 (HCT-116 (Colon cancer); HCT-116, read-out: LC50) was 2.93 µM and the GI50 (HL-60(TB) (Leukemia)) was 1.03 µM. The IC (TGI) (HL-60(TB) (Leukemia); 48 h) was 2.27 µM, the CC50 (HL-60(TB) (Leukemia); read-out: LC50 (the source's name)) was 5 µM and the GI50 (RXF 393 (Renal cancer); RXF 393) was 0.83 µM. It also gave an IC (TGI) (RXF 393 (Renal cancer); RXF 393, 48 h, read-out: TGI) of 1.59 µM, a CC50 (RXF 393 (Renal cancer); RXF 393, read-out: LC50) of 3.07 µM and a GI50 (SF-539 (CNS cancer); SF-539) of 0.95 µM. For the same compound, the IC (TGI) (SF-539 (CNS cancer); SF-539, 48 h, read-out: TGI) was 1.73 µM, the CC50 (SF-539 (CNS cancer); SF-539, read-out: LC50) was 3.17 µM and the GI50 (SK-OV-3 (Ovarian cancer); SK-OV-3) was 4.42 µM. The IC (TGI) (SK-OV-3 (Ovarian cancer); SK-OV-3, 48 h, read-out: TGI) was 12 µM, the CC50 (SK-OV-3 (Ovarian cancer); SK-OV-3, read-out: LC50) was 30.5 µM and the EC50 [1] was 2.95 ± 0.4 µM. For the same compound, the EC50 [2] was 1.84 ± 0.2 µM, the EC50 [3] was 3.3 ± 0.2 µM and the EC50 (MCF-7 (breast carcinoma)) was 2.05 ± 0.2 µM. It also gave an EC50 [4] of 2.97 ± 0.2 µM, a GI50 (HT29 (Colon cancer); HT-29) of 0.99 µM and an IC (TGI) (HT29 (Colon cancer); HT-29, 48 h, read-out: TGI) of 2.04 µM. The CC50 (HT29 (Colon cancer); HT-29, read-out: LC50) was 4.22 µM, the GI50 (MDA-MB-435 (Melanoma); MDA-MB-435) was 0.95 µM and the IC (TGI) (MDA-MB-435 (Melanoma); MDA-MB-435, 48 h, read-out: TGI) was 1.81 µM. For the same compound, the CC50 (MDA-MB-435 (Melanoma); MDA-MB-435, read-out: LC50 (the source's name)) was 3.45 µM, the GI50 (OVCAR-5 (Ovarian cancer); OVCAR-5) was 1.76 µM and the IC (TGI) (OVCAR-5 (Ovarian cancer); OVCAR-5, 48 h, read-out: TGI) was 6.15 µM. It also gave a CC50 (OVCAR-5 (Ovarian cancer); OVCAR-5, read-out: LC50) of 20.9 µM, an IC (TGI) (NSC lung cancer subpanel; 48 h, read-out: TGI MG_MID) of 5.16 µM and a GI50 (NSC lung cancer subpanel; read-out: GI50 MG_MID) of 1.84 µM. It also gave a CC50 (NSC lung cancer subpanel; read-out: LC50 MG_MID) of 27 µM, a GI50 (IGROV1 (Ovarian cancer); IGROV-1) of 0.89 µM and an IC (TGI) (IGROV1 (Ovarian cancer); IGROV-1, 48 h, read-out: TGI) of 1.67 µM. The CC50 (IGROV1 (Ovarian cancer); IGROV-1, read-out: LC50) was 3.14 µM.
